Data published in patent US12649735B2 (HAIHE BIOPHARMA CO., LTD., priority 2019, dated 2026).

Legend:
[1] = biological target: T1, bromodomain protein BRD4 BD1 (Homo sapiens, UniProt O60885); experiment: HTRF in vitro assay, inhibitory activity against BRD4 BD1; type: binding; conditions: BRD4(1) 30 nM in final system
T1 construct: The proteins BRD4 BD1/BD2 used in the experiment were purchased from Active Motif Company (Cat. No. 31380/31446); purchased Active Motif 31380
Protocol: In this example, the half inhibitory activity (IC50) of the compounds of the present invention against the bromodomain protein BRD4 BD1 was determined.
(§1) The inhibitory activity of the compound against BRD4 BD1 was determined by using Homogeneous Time-Resolved Fluorescence (HTRF).
(§2) The proteins BRD4 BD1/BD2 used in the experiment were purchased from Active Motif Company (Cat. No. 31380/31446); Streptavidin XL-665 (#610SAXLA) and EPIgeneous Binding Domain Kit A (#62BDAPEG) were purchased from Cisbio Bioassays Company, [Lys(5,8,12,16)Ac]H4(1-21)-biotin (#64989), and [Lys(5,8,12,16)Ac]H4(1-25) were products of AnaSpec company; OTX015 and ABBV-075 were purchased from SelleckChem. 384 Well ProxiPlate (#6008280) was purchased from PerkinElmer. The multifunctional microplate reader used for the experimental was a product of PerkinElmer, model: Envision 2104. The experimental water was Millipore-Q pure water.
(§3) 10 mM of stock solution of compound in DMSO was diluted to 1 mM with DMSO and stored, and then diluted 10 times with Binding Domain dilution buffer (purchased from Cisbio Bioassays) for use (the concentration of DMSO in the final system was […]), 1:5 gradient dilution, a total of 5 concentrations.
(§4) 4. Test Method: 1 Batch, 2 Duplicate Wells
(§5) • 1) 5 μL of test compound was transferred to 45 μL of Binding Domain dilution buffer. • 2) 2 μL of 10× compound (4 μL Binding Domain dilution buffer: positive control; 6 μL enzyme buffer (purchased from Cisbio Bioassays): negative control) was transferred to the reaction plate. • 3) 4 μL of 5×BRD4(1) or BRD4(2) (30 nM in final system) was added to the reaction plate. • 4) 4 μL of 5×[Lys(5,8,12,16)Ac]H4(1-21)-biotin was added to the reaction plate, and the plate was covered with a film, and incubated at 37° C. for 30 min. • 5) A detection mixture of SA-XL665 (2×) and anti-H3K9me0-Eu(K) (2×) was prepared in detection buffer (purchased from Cisbio Bioassays). • 6) 10 μL of detection mixture (2×) was added to each well, and incubated for 3 h at room temperature, and the mp value was read using a multi-plate reader Envision. The parameters were set as follows.

[2] = biological target: T2, bromodomain protein BRD4 BD2 (Homo sapiens, UniProt O60885); experiment: HTRF in vitro assay, inhibitory activity against BRD4 BD2; type: binding; conditions: BRD4(2) 30 nM in final system
T2 construct: The proteins BRD4 BD1/BD2 used in the experiment were purchased from Active Motif Company (Cat. No. 31380/31446); purchased Active Motif 31446
Protocol: as §1, §2, §3, §4, §5

| Compound | IC50 [1] | IC50 [2] |
| --- | --- | --- |
| Cc1nocc1-c1cc2c(C(C)c3ccccc3)cn(C)c(=O)c2[nH]1 (stereo not shown) [Compound A21] | 100 to 1000 nM | 10 to 100 nM |
| Cc1cc(F)cc(C)c1-n1c(-c2cn(C)c(=O)c3[nH]c(C(=O)Nc4ccn(C)n4)cc23)nc2ncccc21 [Compound A52] | 10 to 100 nM | ≤ 10 nM |
| Cn1cc2c(Cc3ccccc3)cn(C)c(=O)c2c1 [Compound A2] | 100 to 1000 nM | 10 to 100 nM |
| COc1ccc(C(C)c2cn(C)c(=O)c3[nH]c(-c4cnn(C5COC5)c4)cc23)cc1 (stereo not shown) [Compound A73, 4-(1-(4-methoxyphenyl)ethyl)-6-methyl-2-(1-(oxetan-3-yl)-1H-pyrazol-4-yl)-1,6-dihydro-7H-pyrrolo[2,3-c]pyridin-7-one] | 100 to 1000 nM | ≤ 10 nM |
| CCNC(=O)c1cc2c(-c3nc4ncccc4n3-c3c(C)cccc3C)cn(C)c(=O)c2[nH]1 [Compound A31, 4-(1-(2,6-dimethylphenyl)-1H-imidazo[4,5-b]pyridin-2-yl)-N-ethyl-6-methyl-7-oxo-6,7-dihydro-1H-pyrrolo[2,3-c]pyridin-2-carboxamide] | 10 to 100 nM | ≤ 10 nM |
| CCNC(=O)c1cc2c(-c3cc(C(C)(C)O)c4cccnc4c3C)cn(C)c(=O)c2[nH]1 [Compound A40, N-ethyl-4-(5-(2-hydroxypropan-2-yl)-8-methylquinolin-7-yl)-6-methyl-7-oxo-6,7-dihydro-1H-pyrrolo[2,3-c]pyridin-2-carboxamide] | 10 to 100 nM | ≤ 10 nM |
| 6-methyl-7-carbonyl-4-(1-phenylethyl)-N-(tetrahydro-2H-pyran-4-yl)-6,7-dihydro-1H-pyrrolo[2,3-c]pyridin-2-carboxamide [Compound A6] | 100 to 1000 nM | ≤ 10 nM |

Continued, values first:

| IC50 [1] | IC50 [2] | Compound |
| --- | --- | --- |
| 100 to 1000 nM | 10 to 100 nM | Cn1cc(C(CO)c2ccccc2)c2cc(-c3cnn(C4COC4)c3)[nH]c2c1=O (stereo not shown) [Compound A67, 4-(2-hydroxy-1-phenethyl)-6-methyl-2-(1-(oxetan-3-yl)-1H-pyrazol-4-yl)-1,6-dihydro-7H-pyrrolo[2,3-c]pyridin-7-one] |
| 100 to 1000 nM | ≤ 10 nM | CCNC(=O)c1cc2c(C(C)c3ccccc3)cn(C)c(=O)c2[nH]1 (stereo not shown) [Compound A5, N-ethyl-6-methyl-7-oxo-4-(1-phenethyl)-6,7-dihydro-1H-pyrrolo[2,3-c]pyridin-2-carboxamide] |
| 10 to 100 nM | ≤ 10 nM | Cc1cc(C)cc(-n2c(-c3cn(C)c(=O)c4[nH]c(-c5cnn(C)c5)cc34)nc3ncccc32)c1 [Compound A49, 4-(1-(3,5-dimethylphenyl)-1H-imidazo[4,5-b]pyridin-2-yl)-6-methyl-2-(1-methyl-1H-pyrazol-4-yl)-1,6-di hydro-7H-pyrrolo[2,3-c]pyridin-7-one] |
| 100 to 1000 nM | ≤ 10 nM | CC(c1cccc(F)c1F)c1cn(C)c(=O)c2[nH]c(-c3cnn(C4COC4)c3)cc12 (stereo not shown) [Compound A74, 4-(1-(2,3-difluorophenyl)ethyl)-6-methyl-2-(1-(oxetan-3-yl)-1H-pyrazol-4-yl)-1,6-dihydro-7H-pyrrolo[2,3-c]pyridin-7-one] |
| 100 to 1000 nM | 10 to 100 nM | CC(c1ccc(N2CCN(C)CC2)cc1)c1cn(C)c(=O)c2[nH]c(-c3cnn(C4COC4)c3)cc12 (stereo not shown) [Compound A63, 6-methyl-4-(1-(4-(4-methylpiperazin-1-yl)phenyl)ethyl)-2-(1-(oxetan-3-yl)-1H-pyrazol-4-yl)-1,6-dihydro-7H-pyrrolo[2,3-c]pyridin-7-one] |
| 100 to 1000 nM | ≤ 10 nM | CC(c1ccc(F)cc1)c1cn(C)c(=O)c2[nH]c(-c3cnn(C(CO)CN4CCN(C)CC4)c3)cc12 (stereo not shown) [Compound A62, 4-(1-(4-fluorophenyl)ethyl)-2-(1-(1-hydroxy-3-(4-methylpiperazin-1-yl)propan-2-yl)-1H-pyrazol-4-yl)-6-methyl-1,6-dihydro-7H-pyrrolo[2,3-c]pyridin-7-one] |
| 100 to 1000 nM | ≤ 10 nM | CC(c1ccccc1)c1cn(C)c(=O)c2[nH]c(-c3cnn(C)c3)cc12 (stereo not shown) [Compound A18, 6-methyl-2-(1-methyl-1H-pyrazol-4-yl)-4-(1-phenethyl)-1,6-dihydro-7H-pyrrolo[2,3-c]pyridin-7-one] |
